Experiment: TIMS collisional cross section (CCS, N2) of the lipid ion; higher = larger ion cross section
Conditions: ionization mode: positive, one isomer drawn

TIMS collisional cross section (sample type: HeLa) [Å²] | TIMS collisional cross section (sample type: plasma) [Å²] | TIMS collisional cross section (sample type: Liver) [Å²] | SMILES
– | 296.5 | – | CC/C=C\C/C=C\C/C=C\C/C=C\C/C=C\C/C=C\CCC(=O)O[C@H](COC(=O)CCCCCCCCC/C=C\CCCCCC)COP(=O)([O-])OCC[N+](C)(C)C [PC 18:1_22:6@] (ion (formula + adduct): [C48H82NO8P+H] 1+)
– | – | 295.6 | CC/C=C\C/C=C\C/C=C\C/C=C\C/C=C\C/C=C\CCC(=O)O[C@H](COC(=O)CCCCCCCCC/C=C\CCCCCC)COP(=O)([O-])OCC[N+](C)(C)C [PC 18:1_22:6] (ion (formula + adduct): [C48H82NO8P+H] 1+)
– | – | 290.9 | CCCCC/C=C\C/C=C\C/C=C\C/C=C\CCCC(=O)O[C@H](COC(=O)CCCCCCC/C=C\C/C=C\CCCCC)COP(=O)([O-])OCC[N+](C)(C)C [PC 18:2@_20:4] (ion (formula + adduct): [C46H80NO8P+H] 1+)
286.6 | 287 | – | CC/C=C\C/C=C\C/C=C\C/C=C\C/C=C\CCCC(=O)O[C@H](COC(=O)CCCCCCC/C=C\C/C=C\CCCCC)COP(=O)([O-])OCC[N+](C)(C)C [PC 18:2@_20:5] (ion (formula + adduct): [C46H78NO8P+H] 1+)
– | 289.3 | 289.9 | CCCCC/C=C\C/C=C\C/C=C\CCCCC(=O)O[C@H](COC(=O)CCCCCCC/C=C\C/C=C\CCCCC)COP(=O)([O-])OCC[N+](C)(C)C [PC 18:2_18:3@] (ion (formula + adduct): [C44H78NO8P+H] 1+)
– | 283.6 | – | CCCCC/C=C\C/C=C\C/C=C\CCCCC(=O)O[C@H](COC(=O)CCCCCCC/C=C\C/C=C\CCCCC)COP(=O)([O-])OCC[N+](C)(C)C [PC 18:2_18:3] (ion (formula + adduct): [C44H78NO8P+H] 1+)
– | – | 290.1 | CCCCC/C=C\C/C=C\C/C=C\C/C=C\CCCC(=O)O[C@H](COC(=O)CCCCCCC/C=C\C/C=C\CCCCC)COP(=O)([O-])OCC[N+](C)(C)C [PC 18:2_20:4] (ion (formula + adduct): [C46H80NO8P+H] 1+)
– | – | 292.5 | CC/C=C\C/C=C\C/C=C\C/C=C\C/C=C\C/C=C\CCC(=O)O[C@H](COC(=O)CCCCCCC/C=C\C/C=C\CCCCC)COP(=O)([O-])OCC[N+](C)(C)C [PC 18:2_22:6] (ion (formula + adduct): [C48H80NO8P+H] 1+)
– | 292.8 | – | CCCCC/C=C\C/C=C\C/C=C\C/C=C\CCCC(=O)O[C@H](COC(=O)CCCC/C=C\C/C=C\C/C=C\CCCCC)COP(=O)([O-])OCC[N+](C)(C)C [PC 18:3@_20:4] (ion (formula + adduct): [C46H78NO8P+H] 1+)
– | – | 293.2 | CCCCC/C=C\C/C=C\C/C=C\CCCCCCC(=O)O[C@H](COC(=O)CCCC/C=C\C/C=C\C/C=C\CCCCC)COP(=O)([O-])OCC[N+](C)(C)C [PC 18:3_20:3@] (ion (formula + adduct): [C46H80NO8P+H] 1+)
– | – | 286.7 | CCCCC/C=C\C/C=C\C/C=C\C/C=C\CCCC(=O)O[C@H](COC(=O)CCCC/C=C\C/C=C\C/C=C\CCCCC)COP(=O)([O-])OCC[N+](C)(C)C [PC 18:3_20:4] (ion (formula + adduct): [C46H78NO8P+H] 1+)
– | 288.2 | – | CC/C=C\C/C=C\C/C=C\C/C=C\C/C=C\CCCC(=O)O[C@H](COC(=O)CCCC/C=C\C/C=C\C/C=C\CCCCC)COP(=O)([O-])OCC[N+](C)(C)C [PC 18:3_20:5] (ion (formula + adduct): [C46H76NO8P+H] 1+)
– | – | 289.6 | CC/C=C\C/C=C\C/C=C\C/C=C\C/C=C\C/C=C\CCC(=O)O[C@H](COC(=O)CCCC/C=C\C/C=C\C/C=C\CCCCC)COP(=O)([O-])OCC[N+](C)(C)C [PC 18:3_22:6@] (ion (formula + adduct): [C48H78NO8P+H] 1+)
292.7 | – | – | CCCCC/C=C/C/C=C/C/C=C/C/C=C/CCCC(=O)OC[C@H](COP(=O)([O-])OCC[N+](C)(C)C)OC(=O)CCC/C=C/C/C=C/C/C=C/C/C=C/CCCCC [PC 20:4_20:4] (ion (formula + adduct): [C48H80NO8P+H] 1+)
290.3 | – | – | CC/C=C\C/C=C\C/C=C\C/C=C\C/C=C\CCCC(=O)O[C@H](COC(=O)CCC/C=C\C/C=C\C/C=C\C/C=C\CCCCC)COP(=O)([O-])OCC[N+](C)(C)C [PC 20:4_20:5] (ion (formula + adduct): [C48H78NO8P+H] 1+)
295.5 | – | – | CC/C=C\C/C=C\C/C=C\C/C=C\C/C=C\C/C=C\CCC(=O)O[C@H](COC(=O)CCC/C=C\C/C=C\C/C=C\C/C=C\CCCCC)COP(=O)([O-])OCC[N+](C)(C)C [PC 20:4_22:6] (ion (formula + adduct): [C50H80NO8P+H] 1+)

Continued, compound first:

SMILES | TIMS collisional cross section (sample type: HeLa) [Å²] | TIMS collisional cross section (sample type: plasma) [Å²] | TIMS collisional cross section (sample type: Liver) [Å²]
CCCCCCC/C=C\CCCCCCCCC(=O)OC[C@H](COP(=O)([O-])OCC[N+](C)(C)C)OC(=O)CCCCCCCC/C=C\CCCCCCC [PC 18:1_18:1] (ion (formula + adduct): [C44H84NO8P+H] 1+) | 292.9 | – | –
CCCCCCCC/C=C\C/C=C\CCCCC(=O)O[C@H](COC(=O)CCCCCCC/C=C\CCCCCCCC)COP(=O)([O-])OCC[N+](C)(C)C [PC 18:1_18:2@] (ion (formula + adduct): [C44H82NO8P+H] 1+) | 290.1 | – | –
CCCCCCCC/C=C\C/C=C\CCCCC(=O)O[C@H](COC(=O)CCCCCCC/C=C\CCCCCCCC)COP(=O)([O-])OCC[N+](C)(C)C [PC 18:1_18:2] (ion (formula + adduct): [C44H82NO8P+H] 1+) | – | 289.8 | –
CCCCC/C=C\C/C=C\CCCCCCCCCC(=O)O[C@H](COC(=O)CCCCCCC/C=C\CCCCCCCC)COP(=O)([O-])OCC[N+](C)(C)C [PC 18:1_20:2] (ion (formula + adduct): [C46H86NO8P+H] 1+) | 295.9 | – | –
CCCCCCCC/C=C\C/C=C\C/C=C\CCCC(=O)O[C@H](COC(=O)CCCCCCC/C=C\CCCCCCCC)COP(=O)([O-])OCC[N+](C)(C)C [PC 18:1_20:3] (ion (formula + adduct): [C46H84NO8P+H] 1+) | 294 | – | 293.7
CCCCC/C=C\C/C=C\C/C=C\C/C=C\CCCC(=O)O[C@H](COC(=O)CCCCCCC/C=C\CCCCCCCC)COP(=O)([O-])OCC[N+](C)(C)C [PC 18:1_20:4] (ion (formula + adduct): [C46H82NO8P+H] 1+) | – | 294.3 | –
CCCCCCCC/C=C\CCCCCCCC(=O)OC[C@H](COP(=O)([O-])OCC[N+](C)(C)C)OC(=O)CCCCCCCCC/C=C\CCCCCCCCCC [PC 18:1_22:1@] (ion (formula + adduct): [C48H92NO8P+H] 1+) | 304.8 | – | –
CCCCC/C=C\C/C=C\CCCCCCCCCCCC(=O)O[C@H](COC(=O)CCCCCCC/C=C\CCCCCCCC)COP(=O)([O-])OCC[N+](C)(C)C [PC 18:1_22:2@] (ion (formula + adduct): [C48H90NO8P+H] 1+) | 302.4 | – | –
CCCCC/C=C\C/C=C\C/C=C\CCCCC(=O)O[C@H](COC(=O)CCCCCCC/C=C\C/C=C\CCCCC)COP(=O)([O-])OCC[N+](C)(C)C [PC 18:2@_18:3] (ion (formula + adduct): [C44H78NO8P+H] 1+) | – | – | 284.9
CCCCC/C=C\C/C=C\CCCCCCCC(=O)OC[C@H](COP(=O)([O-])OCC[N+](C)(C)C)OC(=O)CCCCCCCCCCCCCCCCCCCCCCC [PC 18:2@_24:0] (ion (formula + adduct): [C50H96NO8P+H] 1+) | – | 310.1 | –
CCCCCCCCCCCCC/C=C/C=C/C(=O)OC[C@H](COP(=O)([O-])OCC[N+](C)(C)C)OC(=O)/C=C/C=C/CCCCCCCCCCCCC [PC 18:2_18:2] (ion (formula + adduct): [C44H80NO8P+H] 1+) | 287.6 | 286.9 | –
CCCCC/C=C\C/C=C\CCCCCCCC(=O)OC[C@H](COP(=O)([O-])OCC[N+](C)(C)C)OC(=O)CCCCCCCCCCCCCCCCCC [PC 18:2_19:0] (ion (formula + adduct): [C45H86NO8P+H] 1+) | – | – | 294.4
CCCCC/C=C\C/C=C\C/C=C\CCCCC(=O)OC[C@H](COP(=O)([O-])OCC[N+](C)(C)C)OC(=O)CCCCCCC/C=C\CCCCCCCCC [PC 18:3@_19:1] (ion (formula + adduct): [C45H82NO8P+H] 1+) | – | 295 | –
CCCCC/C=C\C/C=C\C/C=C\CCCCCCC(=O)O[C@H](COC(=O)CCCCCCCCCCCCCCCCCC)COP(=O)([O-])OCC[N+](C)(C)C [PC 19:0@_20:3] (ion (formula + adduct): [C47H88NO8P+H] 1+) | – | – | 299.8
CCCCC/C=C\C/C=C\C/C=C\C/C=C\CCCC(=O)O[C@H](COC(=O)CCCCCCCCCCCCCCCCCC)COP(=O)([O-])OCC[N+](C)(C)C [PC 19:0@_20:4] (ion (formula + adduct): [C47H86NO8P+H] 1+) | – | – | 298
CC/C=C\C/C=C\C/C=C\C/C=C\C/C=C\C/C=C\CCC(=O)O[C@H](COC(=O)CCCCCCCCCCCCCCCCCC)COP(=O)([O-])OCC[N+](C)(C)C [PC 19:0@_22:6] (ion (formula + adduct): [C49H86NO8P+H] 1+) | – | – | 300.5
CCCCC/C=C\C/C=C\CCCCCCCC(=O)O[C@H](COC(=O)CCCCCCCCCCCCCCCCCCC)COP(=O)([O-])OCC[N+](C)(C)C [PC 20:0_18:2] (ion (formula + adduct): [C46H88NO8P+H] 1+) | – | – | 297.5
CCCCC/C=C\C/C=C\C/C=C\CCCCCCC(=O)O[C@H](COC(=O)CCCCCCCCC/C=C\CCCCCCCC)COP(=O)([O-])OCC[N+](C)(C)C [PC 20:1@_20:3] (ion (formula + adduct): [C48H88NO8P+H] 1+) | – | 301.7 | –
